Legend:
Test in all cases: post-emergence herbicidal activity, greenhouse
Assay type in all cases: in vivo
Morningglory = details: Table III, formulated in anhydrous tetrahydrofuran
How it was run: (§1)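 After sowing in soil-filled pans and growing under greenhouse conditions, plants at two to three weeks were sprayed post-emergence with the test compound in a formulation containing approximately 0.4% emulsifier by weight. Observations of plant injury, relative to controls, followed at about two and four weeks.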

Panicum Spp = details: Table III, formulated in anhydrous tetrahydrofuran
How it was run: as §1

Pennsylvania Smartweed = details: formulated in anhydrous tetrahydrofuran
How it was run: as §1

Quackgrass = details: Table II, formulated in anhydrous tetrahydrofuran
How it was run: (§2)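 Foliar spray, chamber, atomizer; plants 2–3 weeks old in topsoil pans; emulsifier ~0.4% by weight; rates as listed. Rating: injury relative to controls, ~2 and ~4 WAT.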

Rice = details: Table III, formulated in anhydrous tetrahydrofuran
How it was run: as §1

Soybean = details: Table III, formulated in anhydrous tetrahydrofuran
How it was run: as §1

Sugar Beet = details: Table III, formulated in anhydrous tetrahydrofuran
How it was run: as §1

Velvetleaf = details: formulated in anhydrous tetrahydrofuran
How it was run: as §1

Wild Buckwheat = details: Table III, formulated in anhydrous tetrahydrofuran
How it was run: as §1

Yellow Nutsedge = details: Table II, formulated in anhydrous tetrahydrofuran
How it was run: as §2

CCCCOC(=O)CNCP(=O)(O)O[Si](C)(C)C(C)(C)C [Ex. 3, Glycine, N-((([(1,1-Dimethylethyl)Dimethylsilyl]oxy)Hydroxyphosphinyl)Methyl)-, Butyl Ester]
0 (0-24% inhibition): Plant Response Index (H) (Quackgrass; 2 WAT, 5.6 kg/h) | Plant Response Index (O) (Rice; 2 WAT, 1.1 kg/h) | Plant Response Index (O) (Rice; 4 WAT, .28 kg/h) | Plant Response Index (L) (Soybean; 4 WAT, .28 kg/h) | Plant Response Index (M) (Sugar Beet; 2 WAT, .28 kg/h) | Plant Response Index (M) (Sugar Beet; 4 WAT, .28 kg/h) | Plant Response Index (C) (Velvetleaf; Table II, 2 WAT, 5.6 kg/h) | Plant Response Index (Q) (Wild Buckwheat; 4 WAT, .28 kg/h)
3 (75-99% inhibition): Plant Response Index (S) (Panicum Spp; 2 WAT, 5.6 kg/h) | Plant Response Index (S) (Panicum Spp; 4 WAT, 5.6 kg/h) | Plant Response Index (F) (Pennsylvania Smartweed; Table II, 4 WAT, 11.2 kg/h) | Plant Response Index (F) (Pennsylvania Smartweed; Table III, 2 WAT, 5.6 kg/h) | Plant Response Index (F) (Pennsylvania Smartweed; Table III, 4 WAT, 5.6 kg/h) | Plant Response Index (H) (Quackgrass; 2 WAT, 11.2 kg/h) | Plant Response Index (H) (Quackgrass; 4 WAT, 11.2 kg/h) | Plant Response Index (M) (Sugar Beet; 4 WAT, 5.6 kg/h) | Plant Response Index (C) (Velvetleaf; Table III, 2 WAT, 5.6 kg/h) | Plant Response Index (Q) (Wild Buckwheat; 2 WAT, 5.6 kg/h)
1 (25-49% inhibition): Plant Response Index (D) (Morningglory; 2 WAT, .28 kg/h) | Plant Response Index (D) (Morningglory; 4 WAT, .28 kg/h) | Plant Response Index (S) (Panicum Spp; 2 WAT, 1.1 kg/h) | Plant Response Index (S) (Panicum Spp; 2 WAT, .28 kg/h) | Plant Response Index (S) (Panicum Spp; 4 WAT, .28 kg/h) | Plant Response Index (F) (Pennsylvania Smartweed; Table II, 2 WAT, 5.6 kg/h) | Plant Response Index (F) (Pennsylvania Smartweed; Table II, 4 WAT, 5.6 kg/h) | Plant Response Index (H) (Quackgrass; 4 WAT, 5.6 kg/h) | Plant Response Index (O) (Rice; 2 WAT, 5.6 kg/h) | Plant Response Index (O) (Rice; 2 WAT, .28 kg/h) | Plant Response Index (O) (Rice; 4 WAT, 1.1 kg/h) | Plant Response Index (L) (Soybean; 2 WAT, .28 kg/h) | Plant Response Index (L) (Soybean; 4 WAT, 1.1 kg/h) | Plant Response Index (M) (Sugar Beet; 2 WAT, 1.1 kg/h) | Plant Response Index (M) (Sugar Beet; 4 WAT, 1.1 kg/h) | Plant Response Index (C) (Velvetleaf; Table II, 2 WAT, 11.2 kg/h) | Plant Response Index (C) (Velvetleaf; Table II, 4 WAT, 5.6 kg/h) | Plant Response Index (C) (Velvetleaf; Table III, 2 WAT, .28 kg/h) | Plant Response Index (Q) (Wild Buckwheat; 2 WAT, .28 kg/h) | Plant Response Index (G) (Yellow Nutsedge; 2 WAT, 5.6 kg/h) | Plant Response Index (G) (Yellow Nutsedge; 2 WAT, 11.2 kg/h)
4 (100% inhibition): Plant Response Index (C) (Velvetleaf; Table III, 4 WAT, 5.6 kg/h) | Plant Response Index (Q) (Wild Buckwheat; 4 WAT, 5.6 kg/h)
2 (50-74% inhibition): Plant Response Index (D) (Morningglory; 2 WAT, 1.1 kg/h) | Plant Response Index (D) (Morningglory; 2 WAT, 5.6 kg/h) | Plant Response Index (D) (Morningglory; 4 WAT, 1.1 kg/h) | Plant Response Index (D) (Morningglory; 4 WAT, 5.6 kg/h) | Plant Response Index (S) (Panicum Spp; 4 WAT, 1.1 kg/h) | Plant Response Index (F) (Pennsylvania Smartweed; Table II, 2 WAT, 11.2 kg/h) | Plant Response Index (F) (Pennsylvania Smartweed; Table III, 2 WAT, 1.1 kg/h) | Plant Response Index (F) (Pennsylvania Smartweed; Table III, 2 WAT, .28 kg/h) | Plant Response Index (F) (Pennsylvania Smartweed; Table III, 4 WAT, 1.1 kg/h) | Plant Response Index (F) (Pennsylvania Smartweed; Table III, 4 WAT, .28 kg/h) | Plant Response Index (O) (Rice; 4 WAT, 5.6 kg/h) | Plant Response Index (L) (Soybean; 2 WAT, 1.1 kg/h) | Plant Response Index (L) (Soybean; 2 WAT, 5.6 kg/h) | Plant Response Index (L) (Soybean; 4 WAT, 5.6 kg/h) | Plant Response Index (M) (Sugar Beet; 2 WAT, 5.6 kg/h) | Plant Response Index (C) (Velvetleaf; Table II, 4 WAT, 11.2 kg/h) | Plant Response Index (C) (Velvetleaf; Table III, 2 WAT, 1.1 kg/h) | Plant Response Index (C) (Velvetleaf; Table III, 4 WAT, 1.1 kg/h) | Plant Response Index (C) (Velvetleaf; Table III, 4 WAT, .28 kg/h) | Plant Response Index (Q) (Wild Buckwheat; 2 WAT, 1.1 kg/h) | Plant Response Index (Q) (Wild Buckwheat; 4 WAT, 1.1 kg/h) | Plant Response Index (G) (Yellow Nutsedge; 4 WAT, 5.6 kg/h) | Plant Response Index (G) (Yellow Nutsedge; 4 WAT, 11.2 kg/h)
